Experimental data reported in US20260184693A1, “INHIBITORS OF SOLUTE CARRIER FAMILY 6A MEMBER 19 (SLC6A19) AND METHODS OF USE THEREOF” (Maze Therapeutics, Inc., priority 2022, published 2026).
pIC50: −log10 of the molar value.

Legend:
human SLC6A19 [1] = target: T1, human SLC6A19 (Homo sapiens, UniProt Q695T7); assay: Example B-1: L-[3H]leucine uptake, liquid scintillation, in CHO cells with doxycycline-inducible expression of human SLC6A19 and TMEM27; type: cell-based; details: read-out: SLC6A19_Radioligand Uptake Assay IC50
T1 construct: expressed in transfected cells
T1 sequence (Q695T7 1-634): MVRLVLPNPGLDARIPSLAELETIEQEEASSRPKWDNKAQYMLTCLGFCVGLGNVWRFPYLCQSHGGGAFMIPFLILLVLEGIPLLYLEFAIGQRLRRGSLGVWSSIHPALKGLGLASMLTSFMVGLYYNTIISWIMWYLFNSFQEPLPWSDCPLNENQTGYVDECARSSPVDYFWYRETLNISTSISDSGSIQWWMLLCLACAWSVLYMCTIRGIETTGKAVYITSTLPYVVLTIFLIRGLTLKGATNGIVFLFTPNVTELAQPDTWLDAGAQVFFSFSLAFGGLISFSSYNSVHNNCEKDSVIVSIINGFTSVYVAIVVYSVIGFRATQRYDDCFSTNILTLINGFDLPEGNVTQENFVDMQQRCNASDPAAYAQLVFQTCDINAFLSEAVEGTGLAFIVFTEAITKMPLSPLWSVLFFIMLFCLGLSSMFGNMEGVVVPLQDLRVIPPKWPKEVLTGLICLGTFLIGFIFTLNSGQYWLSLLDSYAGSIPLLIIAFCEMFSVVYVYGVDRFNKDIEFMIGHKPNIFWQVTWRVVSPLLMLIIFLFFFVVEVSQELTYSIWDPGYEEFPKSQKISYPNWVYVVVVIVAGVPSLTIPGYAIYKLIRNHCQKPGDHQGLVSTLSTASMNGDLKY
T1 sequence (Q9HBJ8 15-222 partner): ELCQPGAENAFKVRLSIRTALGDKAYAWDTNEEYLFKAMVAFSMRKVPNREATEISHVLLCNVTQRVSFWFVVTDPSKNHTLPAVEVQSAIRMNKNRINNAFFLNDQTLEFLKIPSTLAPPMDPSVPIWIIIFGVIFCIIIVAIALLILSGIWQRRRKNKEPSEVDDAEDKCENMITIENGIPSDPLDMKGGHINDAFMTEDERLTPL
Method: CHO cells with doxycycline-inducible expression of human SLC6A19 and TMEM27 were maintained in T150 cell culture treated flasks using cell culture media, which consisted of 1×DMEM/F12 (Gibco, 11330057), 10% Tet System-Approved FBS (Gibco, A4736401), 100 U/mL Penicillin-Streptomycin (Gibco, 15140122), 1×GlutaMAX™ Supplement (Gibco, 35050061), 1 mM Sodium Pyruvate (Gibco, 11360070), 1.1 mg/mL Sodium Bicarbonate (Gibco, 25080094), 5 μg/mL Blasticidin (InvivoGen, ant-bl-1), 150 μg/mL Hygromycin B Gold (InvivoGen, ant-hg-5), and 500 μg/mL G418 (Sigma-Aldrich, G8168-100 mL). In preparation for the assay, this media was aspirated and 5 mL of TryμLE™ Express Enzyme (Gibco, 12605010) was added to each flask to initiate cell dissociation. The flasks were then incubated (humidified, 37° C. with 5% CO2) for 2 minutes. After incubation, 10 mL of pre-warmed cell culture media was added to each flask. The cell suspension was collected and centrifuged for 5 minutes at 200xg.
The supernatant was aspirated and the pellet was resuspended in 5 mL pre-warmed cell culture media. The resuspended cells were counted using the Countess Cell Counting Chamber (Invitrogen) and the cell concentration of the suspension was readjusted to 1 million live cells/mL using pre-warmed cell culture media. 25 uL/well (25,000 cells/well) of readjusted cell suspension was dispensed into Poly-D-Lysine 384-well white/clear plates (Corning, 354660) using a MultiDrop Combi (Thermo Electron Corp). To induce expression of Human SLC6A19 and TMEM27, 25 uL/well of cell culture media containing 2 μg/mL doxycycline was added to the first 23 columns of each plate resulting in a final concentration of […] doxycycline. 25 μL/well of cell culture media was added to the last column of each plate, to act as negative control wells for Human SLC6A19 and TMEM27 expression. Assay plates were then incubated (humidified, 37° C. with 5% CO2) for 18 hours. After incubation, the media was aspirated and the wells were washed 4 times with pre-warmed HBSS (Sigma-Aldrich, H8264-1L) using an Apricot S-Pipette S2 (Apricot Designs), such that 5 uL/well HBSS was remaining at the end of each wash. […] At this step, the final in-well DMSO concentration in the assay plate is 0.5%. All compounds were plated in a duplicate 8-point dilution series that consisted of 3-fold dilutions. […] Afterwards, 15 uL/well of 3.2 mM hot:cold leucine solution (1:15000 ratio of L-[3,4,5-3H(N)] Leucine (Perkin Elmer, NET460001MC) to L-Leucine (Sigma-Aldrich, L8912-25G) diluted with HBSS (Sigma-Aldrich, H8264-1L)) was added using the Viaflo 384 (Integra), for a final concentration of 1.6 mM hot:cold leucine solution. The plates were then incubated (humidified, 37° C. with 5% CO2) for 20 minutes to conduct the uptake reaction. Immediately after the incubation, the plates were washed 4 times with HBSS (Sigma-Aldrich, H8264-1L) using the ELx405 Microplate Washer (Biotek) to terminate the uptake reaction. After the washes, 50 uL/well Ultima Gold Scintillation Cocktail (Perkin Elmer, 6013326) was added to each well using the Viaflo 384 (Integra). The plates were then incubated (humidified, 37° C. with 5% CO2) on a plate shaker at 200 rpm for 2 hours. After incubation, the plates were removed from the shaker and kept at room temperature for 15 minutes.
Liquid scintillation analysis was performed using the MicroBeta2 Microplate Counter (Perkin Elmer). Activity (%) was derived by normalizing the average of positive control compound treated wells to 0% and the average of DMSO (negative control) wells to 100%. Collaborative Drug Discovery software was used for graphing data.

human SLC6A19 [2] = target: T1, human SLC6A19; assay: Example B2: 13C6,15N-isoleucine uptake, RapidFire mass spectrometry, in CHO cells with doxycycline-inducible expression of human SLC6A19 and TMEM27; type: cell-based; details: read-out: SLC6A19_RapidFire Uptake Assay IC50
Procedure, shortened: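 Labelled isoleucine (13C6,15N; 2 mM added) was given 20 min at 37 °C, following a 20-min compound pre-treatment (10-point 2-fold series, duplicate). Cells were doxycycline-induced CHO co-expressing human SLC6A19 and TMEM27. Intracellular label was quantified by RapidFire-MS peak areas against a 13C-leucine standard.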

Question: With `CC(=O)N1C[C@H](N(C)C(=O)NCc2cc3cc(Cl)ccc3[nH]2)CC[C@@H]1C` (single isomer, unassigned) [Compound 192, 1-((3R,6S or 3S,6R)-1-acetyl-6-methylpiperidin-3-yl)-3-((5-chloro-1H-indol-2-yl)methyl)-1-methylurea] as the molecule, how does the pIC50 (human SLC6A19 [1]) read?
Answer: 6.25

Question: With `CN(C(=O)NCc1cc2cc(Cl)ccc2[nH]1)[C@@H]1CCCN(C(=O)c2cc(F)ccn2)C1` [Compound 111, (R)-3-((5-chloro-1H-indol-2-yl)methyl)-1-(1-(4-fluoropicolinoyl)piperidin-3-yl)-1-methylurea] as the molecule, how does the pIC50 (human SLC6A19 [1]) read?
Answer: 5.88

Question: How did the pIC50 (human SLC6A19 [1]) turn out when `CN(C(=O)NCc1cc2cc(Cl)ccc2[nH]1)[C@@H]1CCCN(C(=O)C2CCOC2)C1` (stereo partly drawn) [Compound 112, 3-((5-chloro-1H-indol-2-yl)methyl)-1-methyl-1-((3R)-1-(tetrahydrofuran-3-carbonyl)piperidin-3-yl)urea] was run?
Answer: 6.44

Question: `CN(C(=O)NCc1cc2cc(Cl)ccc2[nH]1)[C@@H]1CCCN(C(=O)c2nn(C)cc2F)C1` [Compound 113, (R)-3-((5-chloro-1H-indol-2-yl)methyl)-1-(1-(4-fluoro-1-methyl-1H-pyrazole-3-carbonyl)piperidin-3-yl)-1-methylurea] was tested. Which pIC50 (human SLC6A19 [1]) did it give?
Answer: 6.31

Question: `CN(C(=O)NCc1cc2cc(Cl)ccc2[nH]1)[C@@H]1CCCN(C(=O)c2ccc(F)cn2)C1` [Compound 114, (R)-3-((5-chloro-1H-indol-2-yl)methyl)-1-(1-(5-fluoropicolinoyl)piperidin-3-yl)-1-methylurea] was tested. Which pIC50 (human SLC6A19 [1]) did it give?
Answer: 6.07

Question: How did the pIC50 (human SLC6A19 [1]) turn out when `CN(C(=O)NCc1cc2cc(Cl)ccc2[nH]1)[C@@H]1CCCN(C(=O)c2cc(F)n(C)n2)C1` [Compound 115, (R)-3-((5-chloro-1H-indol-2-yl)methyl)-1-(1-(5-fluoro-1-methyl-1H-pyrazole-3-carbonyl)piperidin-3-yl)-1-methylurea] was run?
Answer: 6.16

Question: With `CN(C(=O)NCc1cc2cc(Cl)ccc2[nH]1)[C@@H]1CCCN(C(=O)C2CCO2)C1` (stereo partly drawn) [Compound 116, 3-((5-chloro-1H-indol-2-yl)methyl)-1-methyl-1-((3R)-1-(oxetane-2-carbonyl)piperidin-3-yl)urea] as the molecule, how does the pIC50 (human SLC6A19 [1]) read?
Answer: 6.29

Question: `CC1CC(C(=O)N2CCC[C@@H](N(C)C(=O)NCc3cc4cc(Cl)ccc4[nH]3)C2)C1` (stereo partly drawn) [Compound 117, (R)-3-((5-chloro-1H-indol-2-yl)methyl)-1-methyl-1-(1-(3-methylcyclobutane-1-carbonyl)piperidin-3-yl)urea] was tested. Which pIC50 (human SLC6A19 [1]) did it give?
Answer: 6.22

Question: With `CN(C(=O)NCc1cc2cc(Cl)ccc2[nH]1)[C@@H]1CCCN(C(=O)C2(C)CCC2)C1` [Compound 118, (R)-3-((5-chloro-1H-indol-2-yl)methyl)-1-methyl-1-(1-(1-methylcyclobutane-1-carbonyl)piperidin-3-yl)urea] as the molecule, how does the pIC50 (human SLC6A19 [1]) read?
Answer: 5.79

Question: `CN(C(=O)NCc1cc2cc(Cl)ccc2[nH]1)[C@@H]1CCCN(C(=O)Cn2cc(CCN)nn2)C1` [Compound 134, (R)-1-(1-(2-(4-(2-aminoethyl)-1H-1,2,3-triazol-1-yl)acetyl)piperidin-3-yl)-3-((5-chloro-1H-indol-2-yl)methyl)-1-methylurea] was tested. Which pIC50 (human SLC6A19 [1]) did it give?
Answer: 5.42

Question: With `C[C@@H](O)C(=O)N1CCC[C@@H](N(C)C(=O)NCc2cc3cc(Cl)ccc3[nH]2)C1` [Compound 186, 3-((5-chloro-1H-indol-2-yl)methyl)-1-((R)-1-((R)-2-hydroxypropanoyl)piperidin-3-yl)-1-methylurea] as the molecule, how does the pIC50 (human SLC6A19 [2]) read?
Answer: 5.25

Question: How did the pIC50 (human SLC6A19 [1]) turn out when `CN(C(=O)NCc1cc2cc(Cl)ccc2[nH]1)[C@@H]1CCCN(C(=O)Cc2cnco2)C1` [Compound 205, (R)-3-((5-chloro-1H-indol-2-yl)methyl)-1-methyl-1-(1-(2-(oxazol-5-yl)acetyl)piperidin-3-yl)urea] was run?
Answer: 6.35

Question: `CC(=O)N1CCC[C@@H](N(C)C(=O)NCc2ccc3c(C)c[nH]c3c2)C1` [Compound 223, (R)-1-(1-acetylpiperidin-3-yl)-1-methyl-3-((3-methyl-1H-indol-6-yl)methyl)urea] was tested. Which pIC50 (human SLC6A19 [2]) did it give?
Answer: 5.33

Question: How did the pIC50 (human SLC6A19 [2]) turn out when `COc1ccc2[nH]c(CNC(=O)N(C)[C@@H]3CCCN(C(C)=O)C3)cc2c1` [Compound 224, (R)-1-(1-acetylpiperidin-3-yl)-3-((5-methoxy-1H-indol-2-yl)methyl)-1-methylurea] was run?
Answer: 5.78

Question: `CC(=O)N1CCC[C@@H](N(C)C(=O)NCc2ccc3c(C)c(C)[nH]c3c2)C1` [Compound 225, (R)-1-(1-acetylpiperidin-3-yl)-3-((2,3-dimethyl-1H-indol-6-yl)methyl)-1-methylurea] was tested. Which pIC50 (human SLC6A19 [2]) did it give?
Answer: 5.53

Question: `CC(=O)N1CCC[C@@H](N(C)C(=O)NCc2cc3cc(Cl)c(C)cc3[nH]2)C1` [Compound 226, (R)-1-(1-acetylpiperidin-3-yl)-3-((5-chloro-6-methyl-1H-indol-2-yl)methyl)-1-methylurea] was tested. Which pIC50 (human SLC6A19 [2]) did it give?
Answer: 6.68

Question: With `CC(=O)N1CCC[C@@H](N(C)C(=O)NCc2cc3cc(Cl)cc(C)c3[nH]2)C1` [Compound 227, (R)-1-(1-acetylpiperidin-3-yl)-3-((5-chloro-7-methyl-1H-indol-2-yl)methyl)-1-methylurea] as the molecule, how does the pIC50 (human SLC6A19 [2]) read?
Answer: 6.49

Question: With `CC(=O)N1CCC[C@@H](N(C)C(=O)NCc2cc3cc(C#N)ccc3[nH]2)C1` [Compound 228, (R)-1-(1-acetylpiperidin-3-yl)-3-((5-cyano-1H-indol-2-yl)methyl)-1-methylurea] as the molecule, how does the pIC50 (human SLC6A19 [2]) read?
Answer: 5.66

Question: With `CC(=O)N1CCC[C@@H](N(C)C(=O)NCc2[nH]c3ccc(Cl)cc3c2C)C1` [Compound 229, (R)-1-(1-acetylpiperidin-3-yl)-3-((5-chloro-3-methyl-1H-indol-2-yl)methyl)-1-methylurea] as the molecule, how does the pIC50 (human SLC6A19 [2]) read?
Answer: 6.97

Question: How did the pIC50 (human SLC6A19 [2]) turn out when `CC(=O)N1CCC[C@@H](N(C)C(=O)NCc2cc3cc(Cl)cc(CO)c3[nH]2)C1` [Compound 230, (R)-1-(1-acetylpiperidin-3-yl)-3-((5-chloro-7-(hydroxymethyl)-1H-indol-2-yl)methyl)-1-methylurea] was run?
Answer: 4.89

Question: With `CC(=O)N1CCC[C@@H](N(C)C(=O)NCc2cc3cc(Cl)cc(O)c3[nH]2)C1` [Compound 231, (R)-1-(1-acetylpiperidin-3-yl)-3-((5-chloro-7-hydroxy-1H-indol-2-yl)methyl)-1-methylurea] as the molecule, how does the pIC50 (human SLC6A19 [2]) read?
Answer: 5.97
